Patent US20200056988A1, “METHOD OF DETERMINING THE EFFICACY OF ANTIMICROBIALS” (Wisconsin Alumni Research Foundation, priority 2018, published 2020)

Tested on: infection in critically ill and injured adult ICU subjects
Test: Variation (standard deviation) of exhaled 13CO2/12CO2 breath delta value (BDV) as a marker of response to antimicrobial treatment
Format: in vivo, human
Conditions: single ICU subject of FIG. 15, BAL culture positive for Aspergillus fumigatus; cefuroxime days 1 through 7, cefepime added after day seven
Experimental: The study was conducted as a multi-center prospective study, at four academic research hospitals, to assess exhaled ^13CO2/^12CO2 BDV as an indicator of infection in 20 critically ill and injured adult ICU subjects. Critically ill adult ICU subjects who were not suspected of having an infection at the time of ICU admission were enrolled as study subjects.
Exhaled breath samples were collected upon subject enrollment and every four hours thereafter until the subject was discharged home, transferred to a general care unit/status, or after seven days of breath sample collection, whichever came first. Each sample was collected in four-hour intervals, calculated from the initial sample time, with a window of ±1 hour. Samples collected outside of the specified time interval were still analyzed. […]
Breath samples were shipped to a central laboratory (Isomark, LLC, Madison, Wis.) within 48 hours of final collection from each subject. The breath samples were analyzed using the Canary™ device. The ^13CO2/^12CO2 ratio of each sample was determined from direct measurement and calculated using Pee Dee Belemnite (PDB) as a standard reference: […]
where BDV is expressed as parts per mil (‰). […] The delta over baseline (DOB) was then calculated by subtracting the baseline sample from subsequent samples as described: […]

SMILES | mean variation of BDV
CO/N=C(\C(=O)N[C@@H]1C(=O)N2C(C(=O)O)=C(COC(N)=O)CS[C@H]12)c1ccco1 [cefuroxime] | 0.72 ‰
CO/N=C(\C(=O)N[C@@H]1C(=O)N2C(C(=O)[O-])=C(C[N+]3(C)CCCC3)CS[C@H]12)c1csc(N)n1 [cefepime] | 0.37 ‰
